Assay results taken from US6291496A, “Treating cancers associated with overexpression of class I family of receptor tyrosine kinases” (priority 1999, dated 2001).

What was measured:
[1] = system: HER-2/neu in 184B5/HER cells; experiment: immunoblot for HER-2/neu in 184B5/HER cells; format: cell-based, human; conditions: 25 μM ciglitazone or 20 μM 15-d-PGJ2, 24 hours
Text: The 184B5/HER cell line was obtained from a collaborator and was derived by stably transfecting 184B5 cells with a mutationally activated HER-2/neu oncogene; these cells form rapidly growing tumors when injected into athymic nude mice. The 184B5/HER cell line is described in Pierce, J. H., et al., Oncogene 6, 1189-1194 (1991). The BT-474 cell line is a human breast cancer adenocarcinoma cell line which overexpresses HER-2/neu, and was obtained from the American Type Culture Collection (Manassas, Va.) and bears accession number ATCC HBT-20.
184B5/HER cells were maintained in MEM-KBM mixed in a ratio of 1:1 (basal medium) containing epidermal growth factor (10 ng/ml), hydrocortisone (0.5 μg/ml), transferrin (10 μg/ml), gentamicin (5 μg/ml) and insulin (10 μg/ml) (growth medium). […] cells were grown to 60% confluence, trypsinized with 0.05% trypsin-2 mM ethylenediaminotetraacetic acid, and plated for experimental use. […]
184B5/HER cells were treated with vehicle (0.01% dimethylsulfoxide), 25 μM ciglitazone (Biomol, Plymouth Meeting, Pennsylvania) or 20 μM 15-d-PGJ2 (Biomol, Plymouth Meeting, Pennsylvania) for 24 hours. […] The protein concentration of the supernatant was measured by the method of Lowry, O. H., et al, J. Biol. Chem. 193, 265-275 (1951). […]

[2] = system: EGFR positive breast cancer; experiment: Example IX: adjuvant therapy after mastectomy; format: in vivo, human; conditions: patient, oral 5 mg/kg twice daily for five years after mastectomy
[3] = system: HER-2/neu transcription; experiment: nuclear run-off assay of HER-2/neu transcription in 184B5/HER cells; format: cell-based, human; conditions: ciglitazone 5, 10 or 25 μM, 24 hours
Procedure: To determine whether PPARγ ligands inhibit the transcription of HER-2/neu, a nuclear run-off assay was carried out. 184B5/HER cells were treated with vehicle (0.01% dimethyl sulfoxide) or ciglitazone (5,10 or 25 μM) for 24 hours. 2.5×10^5 cells were plated in four T150 dishes for each condition. Cells were grown in growth medium until 60% confluent. Nuclei were isolated and stored in liquid nitrogen. The HER-2/neu and 18S rRNA cDNAs were immobilized on a nitrocellulose membrane (Schleicher & Schuell, Keene, N.H.) and prehybridized overnight in hybridization buffer.

[4] = system: HER-2/neu positive breast cancer metastasized to lung and liver; experiment: Example III: breast cancer metastasized to lung and liver; format: in vivo, human; conditions: patient, oral 5 mg/kg twice daily
Procedure: After three months, the PPARγ ligand administration is continued in combination regimen with Taxol® at a dose of 175 mg/m^2 administered intravenously every three weeks.

[5] = system: head and neck carcinoma where EGFR is overexpressed; experiment: Example VII: head and neck carcinoma; format: in vivo, human; conditions: after the 12 weeks of CETUXIMAB and cisplatin, oral 5 mg/kg twice daily for 12 weeks
Procedure: Concurrently cisplatin is infused every four weeks at 60 mg/m^2.

[6] = system: HER-2/neu positive colon cancer; experiment: Example V: after resection of colon cancer; format: in vivo, human; conditions: patient, oral 5 mg/kg twice daily for five years after resection
[7] = molecular target: human PPARγ binding domain; conditions: scintillation proximity assay, radioligand [3H]BRL 49653; values reported in Henke et al, Collins et al, Cobb et al; cited from earlier work
[8] = system: HER-2/neu mRNA; experiment: Northern blotting for HER-2/neu mRNA in 184B5/HER cells; format: cell-based, human; conditions: 25 μM ciglitazone or 20 μM 15-d-PGJ2
Procedure: Northern blotting was performed to evaluate whether PPARγ ligands decrease levels of HER-2/neu mRNA. 184B5/HER cells were treated with vehicle (0.01% dimethyl sulfoxide), 25 μM ciglitazone or 20 μM 15-d-PGJ2. Total cellular RNA was isolated from cell monolayers using an RNA isolation kit from Qiagen Inc. 10 μg of RNA was added to each lane. The 10 μg of total cellular RNA per lane were electrophoresed in a formaldehyde-containing 1.2% agarose gel and transferred to nylon-supported membranes. The blot was hybridized with probes that recognized HER-2/neu mRNA (Santa Cruz Biotechnology, Inc., Santa Cruz, Calif.) and 18S rRNA cDNA (Ambion, Inc., Austin, Tex.).

[9] = system: EGFR in 184B5 mammary epithelial cells; experiment: immunoblot for EGFR in 184B5 cells; format: cell-based, human; conditions: ciglitazone 5-30 μM or 15-d-PGJ2 5, 10 μM, 24 hours
Procedure: The cells used were 184B5 cells. The 184B5 cell line was obtained from a collaborator and is an immortalized but non-tumorigenic human breast epithelial cell line that was established from a reduction mammaplasty and is described in Stampler, M. R, et al, Proc. Natl. Acad. Sci. USA 82, 2394-2398 (1985).
184B5 cells were maintained in MEM-KBM mixed in a ratio of 1:1 (basal medium) containing epidermal growth factor (10 ng/ml), hydrocortisone (0.5 μg/ml), transferrin (10 μg/ml), gentamicin (5 μg/ml), and insulin (10 μg/ml) (growth medium). 184B5 cells were grown to 60% confluence, trypsinized with 0.05% trypsin-2 mM ethylenediaminotetraacetic acid and plated for experimental use.
184B5 cells were treated with vehicle (0.01% dimethyl sulfoxide), ciglitazone (5, 10, 20, 30 μM) or 15-d-PGJ2 (5, 10 μM) for 24 hours. Cell lysates were prepared in RIPA buffer. Lysates were sonicated for 20 seconds on ice and centrifuged at 10,000×g for 10 minutes to sediment the particulate material. The protein concentration of the supernatant was measured by the method of Lowry,. O. H., et al, J. Biol. Chem. 193, 265-275 (1951). Cellular lysate protein (100 μg/lane) was loaded onto a 10% SDS-polyacrylamide gel, electrophoresed and subsequently transferred onto a nitrocellulose membrane(Schleicher & Schuell Keene, N. H.). […]

CC1(COc2ccc(CC3SC(=O)NC3=O)cc2)CCCCC1 (stereo not drawn) [ciglitazone]
amount of HER-2/neu (immunoblot) [1]: decreased the amount of HER-2/neu
recurrence of breast cancer [2]: Recurrence of breast cancer dose not occur
HER-2/neu transcription (nuclear run-off) [3]: dose-dependent suppression of HER-2/neu transcription
tumor burden [4]: reduced tumor burden
tumor burden [5]: further reduced tumor burden
recurrence of colon cancer [6]: Recurrence of colon cancer does not occur
pKi in binding assay using the human PPARγ binding domain [7]: 5.51±0.09
amounts of HER-2/neu mRNA (Northern blot) [8]: decrease amounts of HER-2/neu mRNA
amounts of EGFR (immunoblot) [9]: decreased amounts of EGFR
